Assay results taken from patent US20230151003A1, “COMPOUNDS AND METHODS OF USE” (Exelixis, Inc., priority 2020, published 2023).
Where a name gives a salt, the structure may show the parent alone.

Experiments:
[1] = target: Met (Homo sapiens, UniProt P08581); assay: Met autophosphorylation ELISA in PC-3 cells; assay type: cell-based; set-up: endogenous in cells; host or cells: PC-3 prostate cancer cells (ATCC #CRL-1435); settings: Table 3 Cellular Activities, HGF-stimulated, phospho-Met ELISA, read-out: c-Met IC50
Summary of the method: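 IC50 derived by 4-parameter logistic regression of phospho-Met (panTyr) sandwich ELISA signal, scaled between HGF-stimulated DMSO and reference-inhibitor lysates. PC-3 cells, serum-starved 3 h, received an 8-point compound series (0.3% DMSO) for 1 h before 10 min stimulation with 100 ng/mL human HGF.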

[2] = target: T1, AXL (Homo sapiens, UniProt P30530); assay: AXL autophosphorylation ELISA in A-172 cells; assay type: cell-based; settings: Table 3 Cellular Activities, Gas6-stimulated, phospho-AXL ELISA
T1 construct: endogenous in cells; host or cells: A-172 glioblastoma cells (ATCC #CRL-1620)
T1 sequence (P30530 26-894): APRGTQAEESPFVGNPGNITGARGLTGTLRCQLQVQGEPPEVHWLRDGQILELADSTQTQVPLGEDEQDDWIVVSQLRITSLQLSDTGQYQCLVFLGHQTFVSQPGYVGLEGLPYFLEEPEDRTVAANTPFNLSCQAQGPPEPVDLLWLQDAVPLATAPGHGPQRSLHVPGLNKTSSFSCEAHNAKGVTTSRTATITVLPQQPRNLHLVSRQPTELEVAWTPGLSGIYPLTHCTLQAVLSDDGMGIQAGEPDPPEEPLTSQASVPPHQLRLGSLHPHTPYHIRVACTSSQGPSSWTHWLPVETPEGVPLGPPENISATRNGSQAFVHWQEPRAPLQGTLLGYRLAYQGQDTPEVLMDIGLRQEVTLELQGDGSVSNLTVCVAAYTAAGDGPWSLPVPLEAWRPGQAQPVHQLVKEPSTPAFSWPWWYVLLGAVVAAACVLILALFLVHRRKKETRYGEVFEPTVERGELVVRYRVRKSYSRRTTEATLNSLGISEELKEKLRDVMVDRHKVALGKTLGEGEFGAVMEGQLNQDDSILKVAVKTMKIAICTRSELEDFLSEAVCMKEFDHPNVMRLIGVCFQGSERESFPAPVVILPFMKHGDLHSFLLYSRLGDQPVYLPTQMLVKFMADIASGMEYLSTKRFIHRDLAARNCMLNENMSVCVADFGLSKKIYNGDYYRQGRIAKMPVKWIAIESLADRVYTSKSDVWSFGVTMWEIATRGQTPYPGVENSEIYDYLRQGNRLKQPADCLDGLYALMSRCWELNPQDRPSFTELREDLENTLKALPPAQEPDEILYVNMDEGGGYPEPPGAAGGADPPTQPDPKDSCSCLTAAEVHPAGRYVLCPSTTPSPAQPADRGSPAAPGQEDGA
Description: A-172 glioblastoma cells (ATCC #CRL-1620) were seeded at 2.5×10^5 cells/well onto 24-well plates (Greiner #662165), in DMEM (Thermo Fisher #11995-040) containing 10% FBS (Thermo Fisher #26140-079), 1% MEM NEAA (Thermo Fisher #11140-050), 1% GlutaMax (Thermo Fisher #35050-061), and 1% Penicillin Streptomycin (Thermo Fisher #15140-122). A-172 cells were incubated at 37° C., 5% CO2 for 24 h and then starved for 24 h in serum-free medium. Test compounds were serially diluted to produce an 8-point dose curve in fresh serum-free medium to a final concentration of 0.3% DMSO (vehicle) and added to the cells and incubated for 1 h. Cells were then stimulated with 1 μg/mL recombinant human Gas6 (R&D Systems #885-GSB-500) for 15 min, washed with cold PBS, and immediately lysed with 150 μL of cold 1× lysis buffer [20 mM Tris, 137 mM sodium chloride, 2 mM EDTA, 10% glycerol, 1% NP-40 alternative, 1 mM activated sodium orthovanadate, 1 mM PefaBloc SC (Sigma-Aldrich #11429868001), protease/phosphatase inhibitor tablet (Thermo Fisher #A32959)]. Lysates were collected and 100 μL/well added into the human phospho-AXL DuoSet IC ELISA (R&D Systems #DYC2228-2). Assay was performed according to manufacturer's instructions and sample phospho-AXL concentrations were extrapolated using human phospho-AXL control (R&D Systems #841645) as a standard. Positive control wells (100% activity) contained Gas6-stimulated, DMSO-treated cell lysates. Negative control wells (0% activity) contained Gas6-stimulated, reference inhibitor-treated cell lysates. IC50 values were calculated by nonlinear regression analysis using a 4-parameter logistic curve fit in ActivityBase XE (IDBS).

Met, sequence (P08581 25-1390): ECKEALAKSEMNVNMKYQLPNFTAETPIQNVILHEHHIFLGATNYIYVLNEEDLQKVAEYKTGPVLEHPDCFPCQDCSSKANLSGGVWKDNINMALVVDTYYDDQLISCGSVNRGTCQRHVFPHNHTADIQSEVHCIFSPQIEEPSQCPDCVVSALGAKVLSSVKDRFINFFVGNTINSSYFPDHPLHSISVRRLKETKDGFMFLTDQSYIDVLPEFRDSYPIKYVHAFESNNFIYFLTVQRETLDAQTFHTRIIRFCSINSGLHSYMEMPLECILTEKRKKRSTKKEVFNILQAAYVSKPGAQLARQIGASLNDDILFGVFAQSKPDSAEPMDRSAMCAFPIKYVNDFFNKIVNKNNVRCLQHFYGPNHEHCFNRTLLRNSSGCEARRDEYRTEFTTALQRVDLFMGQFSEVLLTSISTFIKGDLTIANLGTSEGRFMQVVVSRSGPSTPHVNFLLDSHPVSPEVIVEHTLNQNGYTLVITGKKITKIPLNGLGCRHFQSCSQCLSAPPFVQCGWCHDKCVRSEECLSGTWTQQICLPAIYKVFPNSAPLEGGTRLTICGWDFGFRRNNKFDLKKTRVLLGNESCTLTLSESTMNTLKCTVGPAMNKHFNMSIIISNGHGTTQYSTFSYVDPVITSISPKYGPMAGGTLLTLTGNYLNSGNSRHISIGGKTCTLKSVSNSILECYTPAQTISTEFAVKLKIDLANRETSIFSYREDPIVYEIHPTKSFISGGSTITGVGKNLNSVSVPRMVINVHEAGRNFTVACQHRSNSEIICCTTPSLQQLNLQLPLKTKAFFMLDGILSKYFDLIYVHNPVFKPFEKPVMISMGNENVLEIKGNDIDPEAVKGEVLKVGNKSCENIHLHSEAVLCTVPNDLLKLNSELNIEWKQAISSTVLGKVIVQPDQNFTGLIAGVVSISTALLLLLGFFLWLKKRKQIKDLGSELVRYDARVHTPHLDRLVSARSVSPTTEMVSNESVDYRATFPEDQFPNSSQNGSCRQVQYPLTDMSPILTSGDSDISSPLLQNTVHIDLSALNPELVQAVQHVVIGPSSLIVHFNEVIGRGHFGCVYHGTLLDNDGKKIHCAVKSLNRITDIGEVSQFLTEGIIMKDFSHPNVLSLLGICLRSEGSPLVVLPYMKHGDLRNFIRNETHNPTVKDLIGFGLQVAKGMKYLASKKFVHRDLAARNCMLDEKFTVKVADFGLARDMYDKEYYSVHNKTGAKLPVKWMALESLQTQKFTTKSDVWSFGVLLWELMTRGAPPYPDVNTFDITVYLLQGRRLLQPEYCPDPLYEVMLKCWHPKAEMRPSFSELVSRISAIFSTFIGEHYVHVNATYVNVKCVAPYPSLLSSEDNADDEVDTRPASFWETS

IC50 [1]	IC50 [2]	Structure (SMILES)
≤ 100 nM	≤ 100 nM	COc1cnc2c(Oc3ccc(NC(=O)c4ccc(C)n(-c5ncc(F)cc5C)c4=O)cc3F)ccnc2c1 [Compound 52, N-[3-Fluoro-4-[(7-methoxy-1,5-naphthyridin-4-yl)oxy]phenyl]-1-(5-fluoro-3-methylpyridin-2-yl)-6-methyl-2-oxopyridine-3-carboxamide]
≤ 100 nM	≤ 100 nM	COc1cc2nccc(Oc3ccc(NC(=O)c4c(C)nc(C)c(-c5ccc(F)cn5)c4O)cc3)c2nc1OC [Compound 216, N-[4-[(6,7-Dimethoxy-1,5-naphthyridin-4-yl)oxy]phenyl]-5-(5-fluoropyridin-2-yl)-4-hydroxy-2,6-dimethylpyridine-3-carboxamide]
≤ 100 nM	≤ 100 nM	COc1cc2nccc(Oc3ccc(NC(=O)c4cnc(C)c(-c5ccco5)c4O)cc3)c2nc1OC [Compound 255, N-[4-[(6,7-Dimethoxy-1,5-naphthyridin-4-yl)oxy]phenyl]-5-(furan-2-yl)-4-hydroxy-6-methylpyridine-3-carboxamide]
≤ 100 nM	≤ 100 nM	COc1cc2nccc(Oc3ccc(NC(=O)c4c5n(cc(-c6ccc(C)s6)c4=O)CCOC5)cc3F)c2nc1OC [Compound 304, N-[4-[(6,7-Dimethoxy-1,5-naphthyridin-4-yl)oxy]-3-fluorophenyl]-7-(5-methylthiophen-2-yl)-8-oxo-3,4-dihydro-1H-pyrido[2,1-c][1,4]oxazine-9-carboxamide]
≤ 100 nM	≤ 100 nM	COc1cnc2c(Oc3ccc(NC(=O)c4ccc(C)n(-c5ccc(F)cn5)c4=O)cc3F)ccnc2c1 [Compound 45, N-[3-Fluoro-4-[(7-methoxy-1,5-naphthyridin-4-yl)oxy]phenyl]-1-(5-fluoropyridin-2-yl)-6-methyl-2-oxopyridine-3-carboxamide]
≤ 100 nM	≤ 100 nM	COc1cc2nccc(Oc3ccc(NC(=O)c4cnc(C)c(-c5ccco5)c4O)cc3F)c2cc1OC [Compound 259, N-[4-(6,7-Dimethoxyquinolin-4-yl)oxy-3-fluorophenyl]-5-(furan-2-yl)-4-hydroxy-6-methylpyridine-3-carboxamide]
≤ 100 nM	≤ 100 nM	COc1cc2nccc(Oc3ccc(NC(=O)c4c(C)nc(C)c(-c5ccc(F)cn5)c4O)cc3F)c2nc1OC [Compound 218, N-[4-[(6,7-Dimethoxy-1,5-naphthyridin-4-yl)oxy]-3-fluorophenyl]-5-(5-fluoropyridin-2-yl)-4-hydroxy-2,6-dimethylpyridine-3-carboxamide]
300 to 1000 nM	≤ 100 nM	COc1cc2nccc(Oc3ccc(NC(=O)c4c5n(cc(-c6ccco6)c4=O)CCOC5)cc3)c2nc1OC [Compound 298, N-[4-[(6,7-Dimethoxy-1,5-naphthyridin-4-yl)oxy]phenyl]-7-(furan-2-yl)-8-oxo-3,4-dihydro-1H-pyrido[2,1-c][1,4]oxazine-9-carboxamide]
≤ 100 nM	≤ 100 nM	COc1cc2c(Oc3ccc(NC(=O)c4c(C)ncc(-c5ccccn5)c4O)cc3F)ccnc2cn1 [Compound 223, N-[3-Fluoro-4-[(6-methoxy-1,7-naphthyridin-4-yl)oxy]phenyl]-4-hydroxy-2-methyl-5-pyridin-2-ylpyridine-3-carboxamide]
300 to 1000 nM	≤ 100 nM	COc1cnc2c(Oc3ccc(NC(=O)c4cc(C(C)=O)c(C)n(-c5ccoc5)c4=O)cc3F)ccnc2c1 [Compound 240, 5-Acetyl-N-[3-fluoro-4-[(7-methoxy-1,5-naphthyridin-4-yl)oxy]phenyl]-1-(furan-3-yl)-6-methyl-2-oxopyridine-3-carboxamide]
≤ 100 nM	≤ 100 nM	COc1cc2nccc(Oc3ccc(NC(=O)c4ccc(C)n(-c5ccc(F)cn5)c4=O)cc3F)c2nc1OC [Compound 43, N-[4-[(6,7-Dimethoxy-1,5-naphthyridin-4-yl)oxy]-3-fluorophenyl]-1-(5-fluoropyridin-2-yl)-6-methyl-2-oxopyridine-3-carboxamide]
≤ 100 nM	≤ 100 nM	COc1cc2nccc(Oc3ccc(NC(=O)c4ccc(C)n(-c5ccc(F)c(C)n5)c4=O)cc3F)c2nc1OC [Compound 227, N-[4-[(6,7-Dimethoxy-1,5-naphthyridin-4-yl)oxy]-3-fluorophenyl]-1-(5-fluoro-6-methylpyridin-2-yl)-6-methyl-2-oxopyridine-3-carboxamide hydrochloride]
≤ 100 nM	≤ 100 nM	COc1cc2nccc(Oc3ccc(NC(=O)c4cnc(C)c(-c5cccs5)c4O)cc3)c2nc1OC [Compound 256, N-[4-[(6,7-Dimethoxy-1,5-naphthyridin-4-yl)oxy]phenyl]-4-hydroxy-6-methyl-5-thiophen-2-ylpyridine-3-carboxamide]
≤ 100 nM	≤ 100 nM	COc1cc2nccc(Oc3ccc(NC(=O)c4ccc(C)n(-c5ccnc(F)c5)c4=O)cc3F)c2nc1OC [Compound 233, N-[4-[(6,7-Dimethoxy-1,5-naphthyridin-4-yl)oxy]-3-fluorophenyl]-1-(2-fluoropyridin-4-yl)-6-methyl-2-oxopyridine-3-carboxamide]
≤ 100 nM	≤ 100 nM	COCc1nc(C)c(-c2ccc(F)cn2)c(O)c1C(=O)Nc1ccc(Oc2ccnc3cc(OC)c(OC)nc23)c(F)c1 [Compound 214, N-[4-[(6,7-Dimethoxy-1,5-naphthyridin-4-yl)oxy]-3-fluorophenyl]-5-(5-fluoropyridin-2-yl)-4-hydroxy-2-(methoxymethyl)-6-methylpyridine-3-carboxamid]
≤ 100 nM	≤ 100 nM	COCCOc1cc2nccc(Oc3ccc(NC(=O)c4ccc(C)n(-c5ccc(F)cn5)c4=O)cc3F)c2nc1OC [Compound 50, N-[3-Fluoro-4-[[6-methoxy-7-(2-methoxyethoxy)-1,5-naphthyridin-4-yl]oxy]phenyl]-1-(5-fluoropyridin-2-yl)-6-methyl-2-oxopyridine-3-carboxamide]
≤ 100 nM	≤ 100 nM	COCCOc1cc2nccc(Oc3ccc(NC(=O)c4cnc(C)c(-c5ccco5)c4O)cc3F)c2nc1OC [Compound 260, N-[3-Fluoro-4-[[6-methoxy-7-(2-methoxyethoxy)-1,5-naphthyridin-4-yl]oxy]phenyl]-5-(furan-2-yl)-4-hydroxy-6-methylpyridine-3-carboxamide]
≤ 100 nM	≤ 100 nM	COc1cc2nccc(Oc3ccc(NC(=O)c4c(C)ncc(-c5ccccn5)c4O)cc3F)c2nc1OC [Compound 69, N-[4-[(6,7-Dimethoxy-1,5-naphthyridin-4-yl)oxy]-3-fluorophenyl]-4-hydroxy-2-methyl-5-pyridin-2-ylpyridine-3-carboxamide]
≤ 100 nM	≤ 100 nM	COc1cc2nccc(Oc3ccc(NC(=O)c4cnc(C)c(-c5ccc(F)cn5)c4O)cc3F)c2nc1OC [Compound 85, N-[4-[(6,7-Dimethoxy-1,5-naphthyridin-4-yl)oxy]-3-fluorophenyl]-5-(5-fluoropyridin-2-yl)-4-hydroxy-6-methylpyridine-3-carboxamide]
